Test results reported in ChEMBL document CHEMBL2074221, “Breast cancer resistance protein (BCRP/ABCG2) induces cellular resistance to HIV-1 nucleoside reverse transcriptase inhibitors” (Mol Pharmacol, 2003).
*1 amine or outer side, *2 acyl side, *3 side chain or, on linkers, in order; H or OH if unused. Where a SMILES comes first, the peptide text is derived from it. Bridges are numbered along the chain shown (N, C = ends). Roman numbers before positions name the chains, in order. [ ]: non-standard residue; d: D form. Actinocin(9to1) = Cc1c2oc3c(C)ccc(C(=O)[*:1])c3nc-2c(C(=O)[*:2])c(N)c1=O; NMeV = CN[C@H](C(=O)O)C(C)C; Sar = CNCC(=O)O

What follows are compounds tested against T1, Broad substrate specificity ATP-binding cassette transporter ABCG2 (Homo sapiens, UniProt Q9UNQ0) (assay: TP_TRANSPORTER: Anti-HIV-1 activity in MT-4 and MT-4/DOX500).
T1 sequence (Q9UNQ0 whole entry): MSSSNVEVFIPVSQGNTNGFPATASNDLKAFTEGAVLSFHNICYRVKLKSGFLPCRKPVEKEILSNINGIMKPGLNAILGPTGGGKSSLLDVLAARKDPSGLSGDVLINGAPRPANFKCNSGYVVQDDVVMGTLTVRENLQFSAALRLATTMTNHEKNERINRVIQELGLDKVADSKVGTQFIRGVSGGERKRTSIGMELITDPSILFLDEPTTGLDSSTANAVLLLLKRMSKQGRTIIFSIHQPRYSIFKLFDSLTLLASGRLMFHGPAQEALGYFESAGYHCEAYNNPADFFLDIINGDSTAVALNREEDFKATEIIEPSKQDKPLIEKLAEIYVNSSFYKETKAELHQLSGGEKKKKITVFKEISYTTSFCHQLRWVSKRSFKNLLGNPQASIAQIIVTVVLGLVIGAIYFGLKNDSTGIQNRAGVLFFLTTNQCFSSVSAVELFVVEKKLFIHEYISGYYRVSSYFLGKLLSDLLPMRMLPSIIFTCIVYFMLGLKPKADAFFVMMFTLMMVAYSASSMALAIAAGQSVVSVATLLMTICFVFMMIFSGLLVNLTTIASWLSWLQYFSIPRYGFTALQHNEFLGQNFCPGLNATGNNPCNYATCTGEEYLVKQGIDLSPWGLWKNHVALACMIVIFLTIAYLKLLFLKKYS
Assay type: functional, cell-based

Row | Compound | Activity
1 | Nc1ccn([C@@H]2CS[C@H](CO)O2)c(=O)n1 [LAMIVUDINE] | substrate []
2 | Cc1cn([C@H]2C[C@H](N=[N+]=[N-])[C@@H](CO)O2)c(=O)[nH]c1=O [ZIDOVUDINE] | substrate []

These compounds were tested against T1, Broad substrate specificity ATP-binding cassette transporter ABCG2 (assay: TP_TRANSPORTER: Cytotoxicity in MT-4 and MT-4/DOX500 cells).
Assay type: functional, cell-based

Row | Compound | Activity
3 | CCc1c2c(nc3ccc(O)cc13)-c1cc3c(c(=O)n1C2)COC(=O)[C@]3(O)CC [7-ETHYL-10-HYDROXYCAMPTOTHECIN] | substrate []
4 | Cc1c2oc3c(C)ccc(C(=O)N[C@@H]4C(=O)N[C@H](C(C)C)C(=O)N5CCC[C@H]5C(=O)N(C)CC(=O)N(C)[C@@H](C(C)C)C(=O)O[C@@H]4C)c3nc-2c(C(=O)N[C@@H]2C(=O)N[C@H](C(C)C)C(=O)N3CCC[C@H]3C(=O)N(C)CC(=O)N(C)[C@@H](C(C)C)C(=O)O[C@@H]2C)c(N)c1=O [DACTINOMYCIN] (I: T[dV]P[Sar][NMeV] / II: T[dV]P[Sar][NMeV]; ester I:1-I:C, II:1-II:C; linker I:N-II:N via Actinocin(9to1)) | substrate []
5 | COc1cccc2c1C(=O)c1c(O)c3c(c(O)c1C2=O)C[C@@](O)(C(=O)CO)C[C@@H]3O[C@H]1C[C@H](N)[C@H](O)[C@H](C)O1 [DOXORUBICIN] | substrate []
6 | COc1cc([C@@H]2c3cc4c(cc3[C@@H](O[C@@H]3O[C@@H]5CO[C@@H](C)O[C@H]5[C@H](O)[C@H]3O)[C@H]3COC(=O)[C@H]23)OCO4)cc(OC)c1O [ETOPOSIDE] | substrate []
7 | CCc1c2c(nc3ccc(OC(=O)N4CCC(N5CCCCC5)CC4)cc13)-c1cc3c(c(=O)n1C2)COC(=O)[C@]3(O)CC [IRINOTECAN] | substrate []
8 | O=C1c2c(O)ccc(O)c2C(=O)c2c(NCCNCCO)ccc(NCCNCCO)c21 [MITOXANTRONE] | substrate []
9 | Cc1cn([C@H]2C[C@H](N=[N+]=[N-])[C@@H](CO)O2)c(=O)[nH]c1=O [ZIDOVUDINE] | substrate []
